Assay results taken from US20140120087A1, “TRIAZOLOPYRIDINES” (BAYER INTELLECTUAL PROPERTY GMBH, priority 2011, published 2014).
pIC50: −log10 of the molar value.

Tests used:
Mps-1 kinase [1] = molecular target: T1, Mps-1 kinase (Homo sapiens, UniProt P33981); experiment: Mps-1 kinase assay with 10 μM ATP (TR-FRET)
T1 sequence (P33981 1-857): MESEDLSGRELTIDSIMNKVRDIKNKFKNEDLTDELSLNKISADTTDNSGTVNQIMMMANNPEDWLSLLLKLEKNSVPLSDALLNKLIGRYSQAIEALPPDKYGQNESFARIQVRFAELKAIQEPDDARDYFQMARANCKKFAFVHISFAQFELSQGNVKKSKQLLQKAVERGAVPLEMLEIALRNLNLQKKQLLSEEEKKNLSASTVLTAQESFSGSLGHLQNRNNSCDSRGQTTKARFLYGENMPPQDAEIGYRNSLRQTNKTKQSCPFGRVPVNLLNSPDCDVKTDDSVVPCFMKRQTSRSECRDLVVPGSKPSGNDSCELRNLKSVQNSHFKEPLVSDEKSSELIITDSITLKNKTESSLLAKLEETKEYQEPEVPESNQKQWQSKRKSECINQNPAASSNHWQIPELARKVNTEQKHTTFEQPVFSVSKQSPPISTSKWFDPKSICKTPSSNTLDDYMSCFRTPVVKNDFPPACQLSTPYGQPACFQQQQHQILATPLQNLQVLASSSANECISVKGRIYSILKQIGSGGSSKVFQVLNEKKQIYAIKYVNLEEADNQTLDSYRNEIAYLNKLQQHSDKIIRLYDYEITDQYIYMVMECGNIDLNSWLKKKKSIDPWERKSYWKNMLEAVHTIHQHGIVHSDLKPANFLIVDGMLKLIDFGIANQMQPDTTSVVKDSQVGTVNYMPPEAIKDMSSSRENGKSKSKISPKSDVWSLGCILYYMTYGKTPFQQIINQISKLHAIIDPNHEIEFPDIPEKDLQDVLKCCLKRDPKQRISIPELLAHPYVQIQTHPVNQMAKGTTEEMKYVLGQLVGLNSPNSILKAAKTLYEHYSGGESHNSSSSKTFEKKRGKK

Mps-1 kinase [2] = molecular target: T1, Mps-1 kinase; experiment: Mps-1 kinase assay with 2 mM ATP (TR-FRET)

Row | pIC50 (Mps-1 kinase [1]) | pIC50 (Mps-1 kinase [2]) | SMILES
1 | ≥ 9.00 | 8.96 | COc1cc(C(C)(C)O)ccc1Nc1nc2ccc(-c3ccc(C(=O)NCc4ccc(F)cc4)cc3)cn2n1 [Example 12.54, N-(4-fluorobenzyl)-4-(2-{[4-(2-hydroxypropan-2-yl)-2-methoxyphenyl]amino}-[1,2,4]triazolo[1,5-a]pyridin-6-yl)benzamide]
2 | ≥ 9.00 | ≥ 9.00 | CCOc1cc(C(=O)NCCN(C)C)ccc1Nc1nc2ccc(-c3ccc(C(=O)NCc4ccc(F)cc4)cc3)cn2n1 [Example 12.55, N-[2-(dimethylamino)ethyl]-3-ethoxy-4-[(6-{4-[(4-fluoro-benzyl)carbamoyl]phenyl}-[1,2,4]triazolo[1,5-a]pyridin-2-yl)amino]benzamide]
3 | ≥ 9.00 | ≥ 9.00 | CCOc1cc(C(=O)N(C)CC)ccc1Nc1nc2ccc(-c3ccc(C(=O)NCc4ccc(F)cc4)cc3)cn2n1 [Example 12.56, 3-ethoxy-N-ethyl-4-[(6-{4-[(4-fluorobenzyl)carbamoyl]phenyl}[1,2,4]triazolo[1,5-a]pyridin-2-yl)amino]-N-methylbenzamide]
4 | ≥ 9.00 | ≥ 9.00 | CCOc1cc(C(=O)NCCF)ccc1Nc1nc2ccc(-c3ccc(C(=O)NCc4ccc(F)cc4)cc3)cn2n1 [Example 12.57, 3-ethoxy-4-[(6-{4-[(4-fluoro-benzyl)carbamoyl]phenyl}-[1,2,4]triazolo[1,5-a]pyridin 2-yl)amino]-N-(2-fluoroethyl)benzamide]
5 | ≥ 9.00 | ≥ 9.00 | CN(C)CCNC(=O)c1ccc(Nc2nc3ccc(-c4ccc(C(=O)NCc5ccc(F)cc5)cc4)cn3n2)c(OCC(F)(F)F)c1 [Example 12.58, N-[2-(dimethylamino)ethyl]-4-[(6-{4-[(4-fluorobenzyl)-carbamoyl]phenyl}[1,2,4]triazolo [1,5-a]pyridin-2-yl)-amino]-3-(2,2,2-trifluoro-ethoxy)benzamide]
6 | ≥ 9.00 | ≥ 9.00 | O=C(NCCF)c1ccc(Nc2nc3ccc(-c4ccc(C(=O)NCc5ccc(F)cc5)cc4)cn3n2)c(OCC(F)(F)F)c1 [Example 12.59, 4-[(6-{4-[(4-fluorobenzyl)-carbamoyl]phenyl}[1,2,4]triazolo [1,5-a]pyridin-2-yl)-amino]-N-(2-fluoroethyl)-3-(2,2,2-trifluoroethoxy)-benzamide]
7 | ≥ 9.00 | 8.30 | NC(=O)c1ccc(Nc2nc3ccc(-c4ccc(C(=O)NCc5ccc(F)cc5)cc4)cn3n2)c(OC(F)(F)F)c1 [Example 12.60, 4-[(6-{4-[(4-fluorobenzyl)-carbamoyl]phenyl}[1,2,4]triazolo [1,5-K]pyridin-2-yl)-amino]-3-(trifluoro-methoxy)benzamide]
8 | ≥ 9.00 | 8.21 | CCS(=O)(=O)c1ccc(Nc2nc3ccc(-c4ccc(C(=O)NCc5ccc(F)cc5)cc4)cn3n2)c(OC(F)F)c1 [Example 12.61, 4-(2-{[2-(difluoromethoxy)-4-(ethylsulfonyl)phenyl]-amino}[1,2,4]triazolo[1,5-a]pyridin-6-yl)-N-(4-fluorobenzyl)benzamide]
9 | ≥ 9.00 | 8.46 | CC(C)S(=O)(=O)c1ccc(Nc2nc3ccc(-c4ccc(C(=O)NCc5ccc(F)cc5)cc4)cn3n2)c(OC(F)F)c1 [Example 12.62, 4-(2-{[2-(difluoromethoxy)-4-(propan-2-ylsulfonyl)-phenyl]amino}[1,2,4]-triazolo[1,5-a]pyridin-6-yl)-N-(4-fluorobenzyl)-benzamide]
10 | ≥ 9.00 | 7.59 | O=C(NCc1ccc(F)cc1)c1ccc(-c2ccc3nc(Nc4ccc(F)cc4OC(F)F)nn3c2)cc1 [Example 12.63, 4-(2-{[2-(difluoromethoxy)-4-fluorophenyl]amino}-[1,2,4]triazolo[1,5-a]pyridin-6-yl)-N-(4-fluoro-benzyl)benzamide]
11 | ≥ 9.00 | 8.80 | CCNC(=O)c1ccc(Nc2nc3ccc(-c4ccc(C(=O)NCc5ccc(F)cc5)cc4)cn3n2)c(C)c1 [Example 12.64, N-ethyl-4-[(6-{4-[(4-fluoro-benzyl)carbamoyl]phenyl}-[1,2,4]triazolo[1,5-a]pyridin-2-yl)amino]-3-methyl-benzamide]
12 | ≥ 9.00 | ≥ 9.00 | Cc1cc(C(N)=O)ccc1Nc1nc2ccc(-c3ccc(C(=O)NCc4ccc(F)cc4)cc3)cn2n1 [Example 12.65, 4-[(6-{4-[(4-fluorobenzyl)-carbamoyl]phenyl}[1,2,4]triazolo [1,5-a]pyridin-2-yl)-amino]-3-methylbenzamide]
13 | ≥ 9.00 | 8.70 | Cc1cc(C(=O)NCC(F)(F)F)ccc1Nc1nc2ccc(-c3ccc(C(=O)NCc4ccc(F)cc4)cc3)cn2n1 [Example 12.66, 4-[(6-{4-[(4-fluorobenzyl)-carbamoyl]phenyl}[1,2,4]triazolo [1,5-a]pyridin-2-yl)-amino]-3-methyl-N-(2,2,2-trifluoroethyl)benzamide]
14 | ≥ 9.00 | 8.30 | Cc1cc(C(=O)NCCF)ccc1Nc1nc2ccc(-c3ccc(C(=O)NCc4ccc(F)cc4)cc3)cn2n1 [Example 12.67, 4-[(6-{4-[(4-fluorobenzyl)-carbamoyl]phenyl}[1,2,4]triazolo [1,5-a]pyridin-2-yl)-amino]-N-(2-fluoroethyl)-3-methylbenzamide]
15 | ≥ 9.00 | 8.72 | Cc1cc(S(C)(=O)=O)ccc1Nc1nc2ccc(-c3ccc(C(=O)NCc4ccc(F)cc4)cc3)cn2n1 [Example 12.68, N-(4-fluorobenzyl)-4-(2-{[2-methyl-4-(methylsulfonyl)-phenyl]amino}[1,2,4]triazolo [1,5-a]pyridin-6-yl)-benzamide]
16 | ≥ 9.00 | 8.02 | Cc1cc(NS(C)(=O)=O)ccc1Nc1nc2ccc(-c3ccc(C(=O)NCc4ccc(F)cc4)cc3)cn2n1 [Example 12.70, N-(4-fluorobenzyl)-4-[2-({2-methyl-4-[(methylsulfonyl)-amino]phenyl}amino)[1,2,4]triazolo [1,5-a]pyridin-6-yl]-benzamide]
17 | ≥ 9.00 | 8.06 | COc1ccc(Nc2nc3ccc(-c4ccc(C(=O)NCc5ccc(F)cc5)cc4)cn3n2)c(C)c1 [Example 12.71, N-(4-fluorobenzyl)-4-{2-[(4-methoxy-2-methylphenyl)-amino][1,2,4]triazolo[1,5-a]pyridin-6-yl}benzamide]
18 | ≥ 9.00 | 7.80 | COc1cc(C(=O)NCC(F)(F)F)ccc1Nc1nc2ccc(-c3ccc(C(=O)NCc4ccc(Cl)cc4)cc3)cn2n1 [Example 12.72, 4-[(6-{4-[(4-chlorobenzyl)-carbamoyl]phenyl}[1,2,4]triazolo [1,5-a]pyridin-2-yl)-amino]-3-methoxy-N-(2,2,2-trifluoroethyl)benzamide]
19 | ≥ 9.00 | 7.80 | COc1cc(S(C)(=O)=O)ccc1Nc1nc2ccc(-c3ccc(C(=O)NCc4ccc(Cl)cc4)cc3)cn2n1 [Example 12.73, N-(4-chlorobenzyl)-4-(2-{[2-methoxy-4-(methylsulfonyl)-phenyl]amino}[1,2,4]triazolo [1,5-a]pyridin-6-yl)-benzamide]
20 | ≥ 9.00 | 7.80 | Cc1cc(S(C)(=O)=O)ccc1Nc1nc2ccc(-c3ccc(C(=O)NCc4ccc(Cl)cc4)cc3)cn2n1 [Example 12.74, N-(4-chlorobenzyl)-4-(2-{[2-methyl-4-(methylsulfonyl)-phenyl]amino}[1,2,4]triazolo [1,5-a]pyridin-6-yl)-benzamide]
21 | ≥ 9.00 | 8.13 | COc1cc(S(C)(=O)=O)ccc1Nc1nc2ccc(-c3ccc(C(=O)NCc4ccc(C)cc4)cc3)cn2n1 [Example 12.76, 4-(2-{[2-methoxy-4-(methyl-sulfonyl)phenyl]amino}-[1,2,4]triazolo[1,5-a]pyridin-6-yl)-N-(4-methyl-benzyl)benzamide]
22 | ≥ 9.00 | 7.96 | Cc1ccc(CNC(=O)c2ccc(-c3ccc4nc(Nc5ccc(S(C)(=O)=O)cc5C)nn4c3)cc2)cc1 [Example 12.77, N-(4-methylbenzyl)-4-(2-{[2-methyl-4-(methylsulfonyl)-phenyl]amino}[1,2,4]triazolo [1,5-a]pyridin-6-yl)-benzamide]
23 | ≥ 9.00 | 7.64 | COc1cc(C(=O)NCC(F)(F)F)ccc1Nc1nc2ccc(-c3ccc(C(=O)NCc4ccc(F)cc4F)cc3)cn2n1 [Example 12.79, 4-[(6-{4-[(2,4-difluoro-benzyl)carbamoyl]phenyl}-[1,2,4]triazolo[1,5-a]pyridin-2-yl)amino]-3-methoxy-N-(2,2,2-trifluoro-ethyl)benzamide]
24 | ≥ 9.00 | 7.74 | Cc1cc(-c2ccc3nc(Nc4ccc(S(C)(=O)=O)cc4OCC(F)(F)F)nn3c2)ccc1C(=O)NCc1ccc(F)cc1F [Example 12.80, N-(2,4-difluorobenzyl)-2-methyl-4-(2-{[4-(methyl-sulfonyl)-2-(2,2,2-trifluoro-ethoxy)phenyl]amino}[1,2,4]triazolo[1,5-a]pyridin-6-yl)-benzamide]
